The target in assay [1] is Intestinal-type alkaline phosphatase (Homo sapiens, UniProt P09923). Put plainly: activation of human intestinal alkaline phosphatase – biochemical, dose response (AID 488873). The assay is classed as functional.
Assay [2] deals with T1, Zinc finger protein mex-5 (Caenorhabditis elegans, UniProt Q9XUB2).
T1 sequence (Q9XUB2 whole entry): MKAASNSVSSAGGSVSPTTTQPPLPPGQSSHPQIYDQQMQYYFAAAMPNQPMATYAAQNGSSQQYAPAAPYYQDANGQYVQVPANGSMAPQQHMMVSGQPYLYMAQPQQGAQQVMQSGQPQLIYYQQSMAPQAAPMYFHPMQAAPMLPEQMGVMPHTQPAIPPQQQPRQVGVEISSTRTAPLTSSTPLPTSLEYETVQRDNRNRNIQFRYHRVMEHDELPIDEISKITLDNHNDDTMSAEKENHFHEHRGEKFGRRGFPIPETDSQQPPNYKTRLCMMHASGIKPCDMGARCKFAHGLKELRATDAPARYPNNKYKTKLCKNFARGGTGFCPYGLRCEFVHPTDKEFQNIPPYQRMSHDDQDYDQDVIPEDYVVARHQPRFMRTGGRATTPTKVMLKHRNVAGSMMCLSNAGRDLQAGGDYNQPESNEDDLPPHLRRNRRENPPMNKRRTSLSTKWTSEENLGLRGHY
The experiment in a line: MEX-5/TCR-2 RNA interaction inhibitors, dose response, biochemical, C. elegans, fluorescence polarization (AID 1960).

In assay [3] the target is T2, Alkaline phosphatase, tissue-nonspecific isozyme (Homo sapiens, UniProt P05186).
T2 sequence (P05186 whole entry): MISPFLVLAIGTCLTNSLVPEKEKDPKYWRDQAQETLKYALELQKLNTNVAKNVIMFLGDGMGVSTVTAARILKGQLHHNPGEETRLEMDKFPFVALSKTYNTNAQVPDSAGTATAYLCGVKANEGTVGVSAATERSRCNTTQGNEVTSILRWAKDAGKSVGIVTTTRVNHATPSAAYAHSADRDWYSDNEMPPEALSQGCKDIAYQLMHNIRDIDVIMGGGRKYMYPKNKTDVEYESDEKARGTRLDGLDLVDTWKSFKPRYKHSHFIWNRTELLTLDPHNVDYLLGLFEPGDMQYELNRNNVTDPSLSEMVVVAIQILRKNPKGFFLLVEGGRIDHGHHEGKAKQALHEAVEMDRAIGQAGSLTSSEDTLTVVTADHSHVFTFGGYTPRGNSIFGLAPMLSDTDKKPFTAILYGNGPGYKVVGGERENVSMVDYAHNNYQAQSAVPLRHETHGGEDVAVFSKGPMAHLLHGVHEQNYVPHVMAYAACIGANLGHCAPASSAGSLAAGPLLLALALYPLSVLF
The experiment in a line: human TNAP enzyme inhibitors, SAR follow-up, biochemical, luminescent, dose response (AID 1056).

For assay [4], the target named is T3, RNA-binding protein pos-1 (Caenorhabditis elegans, UniProt G5EF15).
T3 sequence (G5EF15 whole entry): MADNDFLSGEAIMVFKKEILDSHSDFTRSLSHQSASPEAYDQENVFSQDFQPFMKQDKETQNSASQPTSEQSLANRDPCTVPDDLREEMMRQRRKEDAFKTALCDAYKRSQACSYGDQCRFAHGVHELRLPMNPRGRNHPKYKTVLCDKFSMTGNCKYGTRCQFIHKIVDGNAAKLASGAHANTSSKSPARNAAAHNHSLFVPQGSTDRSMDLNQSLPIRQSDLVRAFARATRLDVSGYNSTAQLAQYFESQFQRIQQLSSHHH
Put plainly: inhibitors of POS-1/mex-3 RNA binding, dose response, biochemical, fluorescence polarization (AID 1964).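 Further: purified POS-1 fused to maltose binding protein made in E. coli; potency of compounds blocking POS-1 binding to fluorescent RNA.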 A general note: Fluorescence polarisation rises when a labelled molecule tumbles more slowly, as on binding a larger partner.

In assay [5] the target is T2, Alkaline phosphatase, tissue-nonspecific isozyme. The experiment in a line: TNAP enzyme activators, dose response, selectivity assay for mouse IAP activator project, biochemical, TNAP isozyme, mouse IAP uHTS hits (AID 488880). The assay is classed as functional.
Assay [6] has as its target Intestinal-type alkaline phosphatase (Mus musculus, UniProt P24822). Put plainly: mouse intestinal alkaline phosphatase activators, dose response, biochemical, luminescence, uHTS hits (AID 488783). It is filed as functional.
Assay [7] has as its target T4, Nucleotide-binding oligomerization domain-containing protein 1 (Homo sapiens, UniProt Q9Y239).
T4 sequence (Q9Y239 whole entry): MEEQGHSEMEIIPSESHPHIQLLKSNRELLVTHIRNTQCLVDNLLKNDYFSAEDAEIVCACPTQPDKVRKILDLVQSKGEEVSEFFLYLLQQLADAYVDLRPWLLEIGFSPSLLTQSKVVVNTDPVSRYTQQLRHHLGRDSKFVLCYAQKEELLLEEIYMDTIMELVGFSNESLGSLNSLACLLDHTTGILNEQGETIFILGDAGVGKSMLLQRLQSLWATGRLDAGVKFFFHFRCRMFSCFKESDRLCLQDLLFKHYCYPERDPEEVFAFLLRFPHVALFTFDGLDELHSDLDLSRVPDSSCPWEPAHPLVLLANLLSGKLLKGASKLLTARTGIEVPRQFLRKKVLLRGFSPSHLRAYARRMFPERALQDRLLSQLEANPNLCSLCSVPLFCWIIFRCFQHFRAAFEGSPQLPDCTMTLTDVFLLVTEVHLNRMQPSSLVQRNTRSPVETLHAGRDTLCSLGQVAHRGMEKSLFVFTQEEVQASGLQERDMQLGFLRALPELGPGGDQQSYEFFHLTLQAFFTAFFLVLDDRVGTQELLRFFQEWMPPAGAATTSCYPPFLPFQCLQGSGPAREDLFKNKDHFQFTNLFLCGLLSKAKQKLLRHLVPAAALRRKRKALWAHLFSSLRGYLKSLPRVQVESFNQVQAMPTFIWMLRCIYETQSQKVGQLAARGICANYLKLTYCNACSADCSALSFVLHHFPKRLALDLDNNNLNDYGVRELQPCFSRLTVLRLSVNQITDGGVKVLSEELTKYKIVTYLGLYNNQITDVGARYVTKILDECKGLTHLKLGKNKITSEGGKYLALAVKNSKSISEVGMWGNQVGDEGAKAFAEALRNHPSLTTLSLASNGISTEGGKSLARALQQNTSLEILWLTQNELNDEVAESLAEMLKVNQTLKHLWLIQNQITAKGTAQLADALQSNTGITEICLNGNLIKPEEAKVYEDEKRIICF
Put plainly: SAR analysis of compounds that inhibit NOD1 - Set 3. [Related pubchem assays (depositor defined):AID1566, AID1575, AID1578, AID1849, AID1852, AID2333, AID2335, AID2466]. The assay is classed as functional.

A further assay deals with HEK293. Put plainly: SAR analysis of compounds that are cytotoxic to HEK293 - Set 3. [Related pubchem assays (depositor defined):AID1575, AID1578, AID1848, AID1849, AID2001, AID2333, AID2334, AID2335, AID2337, AID2469]. The assay is classed as functional, cell-based. Particulars: Homo sapiens.
For assay [8], the target named is Nucleotide-binding oligomerization domain-containing protein 2 (Homo sapiens, UniProt Q9HC29). Put plainly: NOD2 signaling inhibitors, analog potency, SAR follow-up, cell-based, set 3 (AID 2799). The assay is classed as functional.
For a further assay, the target named is Tumor necrosis factor (Homo sapiens, UniProt P01375). Put plainly: TNFa-triggered NF-kB activation inhibitors, SAR follow-up, cell-based, set 3 (AID 2801). The assay is classed as functional.
Assay [9] concerns the target Voltage-dependent T-type calcium channel subunit alpha-1H (Homo sapiens, UniProt O95180). The experiment in a line: Cav3.2 T-type channel inhibitors, synthesized analogs, SAR follow-up, cell-based, synthetic library set 2, HEK293 HH8, Fluo-4 (AID 493023). It is filed as functional.
For assay [10], the target named is T5, Ubiquitin-conjugating enzyme E2 N (Homo sapiens, UniProt P61088).
T5 sequence (P61088 whole entry): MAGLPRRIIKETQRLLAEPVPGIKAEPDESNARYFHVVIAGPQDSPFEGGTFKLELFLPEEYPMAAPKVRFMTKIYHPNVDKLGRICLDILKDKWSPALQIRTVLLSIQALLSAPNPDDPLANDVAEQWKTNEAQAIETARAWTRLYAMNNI
The assay is classed as functional.

For assay [11], the target named is T5, Ubiquitin-conjugating enzyme E2 N. The assay is classed as functional. This is another data set of the same source.
Assay [12] deals with T6, High affinity choline transporter 1 (Homo sapiens, UniProt Q9GZV3).
T6 sequence (Q9GZV3 whole entry): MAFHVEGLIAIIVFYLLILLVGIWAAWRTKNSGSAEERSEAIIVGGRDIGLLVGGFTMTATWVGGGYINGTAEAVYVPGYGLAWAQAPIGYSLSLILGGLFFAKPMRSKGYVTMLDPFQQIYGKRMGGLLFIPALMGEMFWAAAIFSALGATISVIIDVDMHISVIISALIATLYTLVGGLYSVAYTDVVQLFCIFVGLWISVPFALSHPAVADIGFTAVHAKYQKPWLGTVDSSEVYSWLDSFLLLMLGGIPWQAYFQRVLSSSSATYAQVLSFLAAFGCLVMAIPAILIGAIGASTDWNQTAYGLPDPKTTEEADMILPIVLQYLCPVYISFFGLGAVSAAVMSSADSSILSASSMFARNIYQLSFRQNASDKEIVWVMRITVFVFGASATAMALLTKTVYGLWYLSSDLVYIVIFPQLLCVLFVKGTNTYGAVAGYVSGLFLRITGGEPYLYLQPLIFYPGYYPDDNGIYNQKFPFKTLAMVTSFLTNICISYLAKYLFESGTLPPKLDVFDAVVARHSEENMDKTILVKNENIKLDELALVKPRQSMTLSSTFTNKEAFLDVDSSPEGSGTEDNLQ
Put plainly: CHT inhibitors, dose response, cell-based, 5-point CRC, membrane potential dye (AID 504840). The assay is classed as functional.

For a further assay, the target named is Bcl-2-related protein A1 (Mus musculus, UniProt Q07440). The assay is classed as functional.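 Further: confirmatory dose–response counterscreen on Bfl-1, used to check hits from a UBC13 polyubiquitin inhibitor campaign.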
The nature of the next assay: cells. It is filed as functional.
Assay [13] can be described thus: THP-1 cell cytotoxicity, dose response, cytotoxicity control for non-replicating M. tuberculosis project (AID 489025). It is filed as functional.

Each structure is given as a SMILES string. Active and inactive are the calls of the source. Some results are limits rather than exact numbers.

Voltage-dependent T-type calcium channel subunit alpha-1H, sequence (O95180 whole entry): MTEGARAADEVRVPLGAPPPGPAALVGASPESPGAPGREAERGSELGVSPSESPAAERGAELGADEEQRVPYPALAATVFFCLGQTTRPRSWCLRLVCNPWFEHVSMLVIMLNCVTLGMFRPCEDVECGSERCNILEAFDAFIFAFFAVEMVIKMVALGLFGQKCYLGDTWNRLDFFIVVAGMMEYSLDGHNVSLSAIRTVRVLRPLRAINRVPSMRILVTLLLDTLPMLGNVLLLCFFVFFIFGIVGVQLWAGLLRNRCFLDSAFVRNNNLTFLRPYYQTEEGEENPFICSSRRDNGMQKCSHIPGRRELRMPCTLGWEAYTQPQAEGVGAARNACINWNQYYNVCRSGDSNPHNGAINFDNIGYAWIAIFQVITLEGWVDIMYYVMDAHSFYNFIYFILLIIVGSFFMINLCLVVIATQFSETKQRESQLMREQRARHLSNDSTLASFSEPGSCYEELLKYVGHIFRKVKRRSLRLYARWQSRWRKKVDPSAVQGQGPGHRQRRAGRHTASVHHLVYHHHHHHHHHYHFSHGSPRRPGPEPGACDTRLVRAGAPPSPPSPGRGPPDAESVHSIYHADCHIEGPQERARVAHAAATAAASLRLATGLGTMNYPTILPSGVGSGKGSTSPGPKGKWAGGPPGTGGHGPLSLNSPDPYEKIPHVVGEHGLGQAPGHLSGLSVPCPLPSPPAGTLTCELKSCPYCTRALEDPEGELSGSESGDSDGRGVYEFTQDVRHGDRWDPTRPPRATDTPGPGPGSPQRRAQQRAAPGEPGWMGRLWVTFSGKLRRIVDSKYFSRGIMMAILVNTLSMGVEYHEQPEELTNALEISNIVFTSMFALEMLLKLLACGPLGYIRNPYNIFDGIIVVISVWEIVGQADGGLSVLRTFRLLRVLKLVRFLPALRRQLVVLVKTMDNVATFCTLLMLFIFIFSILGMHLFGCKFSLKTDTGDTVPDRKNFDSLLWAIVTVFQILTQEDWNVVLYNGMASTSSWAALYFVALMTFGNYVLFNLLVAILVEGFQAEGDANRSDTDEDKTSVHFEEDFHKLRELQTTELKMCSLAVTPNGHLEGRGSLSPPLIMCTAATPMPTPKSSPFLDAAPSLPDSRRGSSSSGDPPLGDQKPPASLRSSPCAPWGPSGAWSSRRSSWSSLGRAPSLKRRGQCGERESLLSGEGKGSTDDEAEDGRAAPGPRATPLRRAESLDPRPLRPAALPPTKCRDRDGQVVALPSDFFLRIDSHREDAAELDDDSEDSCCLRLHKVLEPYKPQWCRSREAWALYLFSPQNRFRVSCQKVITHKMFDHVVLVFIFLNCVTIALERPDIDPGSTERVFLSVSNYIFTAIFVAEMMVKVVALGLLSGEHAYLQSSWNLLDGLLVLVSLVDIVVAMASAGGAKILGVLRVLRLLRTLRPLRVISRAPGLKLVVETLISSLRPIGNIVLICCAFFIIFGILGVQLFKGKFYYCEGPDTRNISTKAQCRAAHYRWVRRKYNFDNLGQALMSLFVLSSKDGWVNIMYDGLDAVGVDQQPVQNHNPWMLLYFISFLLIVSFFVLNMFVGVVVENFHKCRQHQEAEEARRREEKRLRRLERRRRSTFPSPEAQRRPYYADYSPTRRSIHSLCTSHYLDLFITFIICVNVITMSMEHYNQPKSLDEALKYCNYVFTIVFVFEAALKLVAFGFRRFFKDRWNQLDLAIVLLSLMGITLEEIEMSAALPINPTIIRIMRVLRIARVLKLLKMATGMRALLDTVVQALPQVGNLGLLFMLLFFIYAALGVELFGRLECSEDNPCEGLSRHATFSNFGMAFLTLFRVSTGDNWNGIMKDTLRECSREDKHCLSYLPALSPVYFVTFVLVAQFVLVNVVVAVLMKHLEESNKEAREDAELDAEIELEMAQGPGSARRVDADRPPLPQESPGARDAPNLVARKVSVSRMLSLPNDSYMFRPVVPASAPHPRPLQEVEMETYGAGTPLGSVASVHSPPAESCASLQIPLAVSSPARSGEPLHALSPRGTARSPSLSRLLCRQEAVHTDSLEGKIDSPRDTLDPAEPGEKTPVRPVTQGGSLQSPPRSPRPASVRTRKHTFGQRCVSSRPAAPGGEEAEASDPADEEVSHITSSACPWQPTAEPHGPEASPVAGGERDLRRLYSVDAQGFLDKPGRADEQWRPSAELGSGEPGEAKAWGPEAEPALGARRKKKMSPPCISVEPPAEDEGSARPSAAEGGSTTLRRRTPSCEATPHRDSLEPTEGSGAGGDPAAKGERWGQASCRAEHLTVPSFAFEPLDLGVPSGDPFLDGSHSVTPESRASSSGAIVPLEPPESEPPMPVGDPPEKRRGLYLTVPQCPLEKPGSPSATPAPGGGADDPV
Intestinal-type alkaline phosphatase (Homo sapiens, UniProt P09923), sequence (P09923 whole entry): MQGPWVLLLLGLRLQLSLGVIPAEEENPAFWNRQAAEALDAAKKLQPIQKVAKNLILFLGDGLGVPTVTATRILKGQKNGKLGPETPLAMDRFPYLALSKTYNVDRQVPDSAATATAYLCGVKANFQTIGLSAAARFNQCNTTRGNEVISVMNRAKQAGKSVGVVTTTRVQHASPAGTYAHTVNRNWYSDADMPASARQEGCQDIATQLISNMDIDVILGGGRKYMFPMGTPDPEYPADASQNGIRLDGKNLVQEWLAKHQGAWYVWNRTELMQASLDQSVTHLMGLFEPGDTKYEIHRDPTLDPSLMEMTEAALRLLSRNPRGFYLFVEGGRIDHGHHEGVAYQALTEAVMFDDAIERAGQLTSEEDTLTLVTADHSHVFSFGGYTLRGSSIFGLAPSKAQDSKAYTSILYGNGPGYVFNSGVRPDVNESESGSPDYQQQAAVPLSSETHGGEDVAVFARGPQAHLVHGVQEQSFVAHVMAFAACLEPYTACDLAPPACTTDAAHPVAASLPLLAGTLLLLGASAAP
Intestinal-type alkaline phosphatase (Mus musculus, UniProt P24822), sequence (P24822 whole entry, the tested form may be a part): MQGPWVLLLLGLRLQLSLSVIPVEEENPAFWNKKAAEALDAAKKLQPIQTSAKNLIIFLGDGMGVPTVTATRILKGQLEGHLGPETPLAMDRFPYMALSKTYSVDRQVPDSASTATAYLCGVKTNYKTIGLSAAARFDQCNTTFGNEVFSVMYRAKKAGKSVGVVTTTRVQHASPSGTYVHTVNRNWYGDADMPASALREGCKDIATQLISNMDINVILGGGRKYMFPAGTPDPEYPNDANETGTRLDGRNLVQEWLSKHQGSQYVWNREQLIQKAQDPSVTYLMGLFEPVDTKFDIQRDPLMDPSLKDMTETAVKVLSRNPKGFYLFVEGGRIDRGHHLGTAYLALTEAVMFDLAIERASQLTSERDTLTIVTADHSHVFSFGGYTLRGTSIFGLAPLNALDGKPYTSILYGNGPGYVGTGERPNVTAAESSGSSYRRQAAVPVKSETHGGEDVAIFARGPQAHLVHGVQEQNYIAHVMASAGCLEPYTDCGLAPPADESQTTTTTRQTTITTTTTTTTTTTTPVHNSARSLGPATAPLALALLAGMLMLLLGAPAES
Nucleotide-binding oligomerization domain-containing protein 2, sequence (Q9HC29 whole entry, the tested form may be a part): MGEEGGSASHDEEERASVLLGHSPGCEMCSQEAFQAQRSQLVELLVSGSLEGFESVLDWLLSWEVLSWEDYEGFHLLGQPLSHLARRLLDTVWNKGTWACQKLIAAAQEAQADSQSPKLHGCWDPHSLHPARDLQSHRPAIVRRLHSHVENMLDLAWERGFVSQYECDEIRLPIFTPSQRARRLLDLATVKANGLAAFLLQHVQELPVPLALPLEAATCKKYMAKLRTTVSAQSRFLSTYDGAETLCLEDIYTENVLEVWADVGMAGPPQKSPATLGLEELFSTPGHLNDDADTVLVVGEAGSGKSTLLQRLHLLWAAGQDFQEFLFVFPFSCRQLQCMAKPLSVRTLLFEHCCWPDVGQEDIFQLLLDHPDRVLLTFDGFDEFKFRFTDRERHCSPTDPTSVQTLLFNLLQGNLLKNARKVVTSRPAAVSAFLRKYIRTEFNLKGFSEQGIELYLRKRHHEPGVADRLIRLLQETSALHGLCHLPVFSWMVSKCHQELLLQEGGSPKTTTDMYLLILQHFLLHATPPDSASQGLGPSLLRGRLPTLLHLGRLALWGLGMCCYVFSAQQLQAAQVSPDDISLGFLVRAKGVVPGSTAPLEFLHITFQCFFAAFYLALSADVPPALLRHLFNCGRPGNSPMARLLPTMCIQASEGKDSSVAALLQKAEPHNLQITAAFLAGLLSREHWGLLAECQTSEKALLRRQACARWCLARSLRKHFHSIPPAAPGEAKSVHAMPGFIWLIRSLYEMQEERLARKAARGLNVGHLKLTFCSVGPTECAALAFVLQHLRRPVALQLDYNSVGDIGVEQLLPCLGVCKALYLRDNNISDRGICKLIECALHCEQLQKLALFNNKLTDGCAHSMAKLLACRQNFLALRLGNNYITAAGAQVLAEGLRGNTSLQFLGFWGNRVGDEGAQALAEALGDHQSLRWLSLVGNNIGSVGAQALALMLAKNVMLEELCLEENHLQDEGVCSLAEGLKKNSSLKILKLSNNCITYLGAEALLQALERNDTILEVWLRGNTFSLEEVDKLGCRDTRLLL
Tumor necrosis factor, sequence (P01375 whole entry): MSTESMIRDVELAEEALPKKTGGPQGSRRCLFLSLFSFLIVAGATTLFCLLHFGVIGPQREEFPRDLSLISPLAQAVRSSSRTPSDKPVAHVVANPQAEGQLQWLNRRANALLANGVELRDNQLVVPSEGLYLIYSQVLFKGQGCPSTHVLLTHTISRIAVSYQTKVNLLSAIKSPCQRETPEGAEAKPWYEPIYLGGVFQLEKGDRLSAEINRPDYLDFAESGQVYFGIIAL
Bcl-2-related protein A1, sequence (Q07440 whole entry): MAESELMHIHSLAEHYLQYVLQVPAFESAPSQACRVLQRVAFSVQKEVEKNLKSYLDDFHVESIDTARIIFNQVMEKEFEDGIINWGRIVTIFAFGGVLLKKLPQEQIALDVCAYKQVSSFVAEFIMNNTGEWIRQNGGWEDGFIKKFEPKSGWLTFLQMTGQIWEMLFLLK

For `COc1ccc(OC)c(S(=O)(=O)Nc2ccc(O)c(Sc3nc[nH]n3)c2)c1`, the EC50 – broadly, the concentration at which the effect is half-maximal – in [1] is 74.7 µM (active); in assay [2] it was 17.7 µM (inconclusive); in assay [4], 11.5 µM (active); in assay [5] it was 62.1 µM (active); in assay [6] it was 66.9 µM (active). For the same molecule, the IC50 (as a rule, the midpoint of a concentration-inhibition curve) in assay [3] is 13.1 µM (active).
As to `Nc1nc2ccccc2n1S(=O)(=O)c1ccc(OC(F)(F)F)cc1`, the IC50 in assay [7] was 8.94 µM (active); with HEK293 it was > 20 µM (inactive); in assay [8] it was > 20 µM (inactive); at Tumor necrosis factor it was > 20 µM (inactive).
Regarding `CC(C)(C)CCN1CC2CCC(NC(=O)c3ccc(Cl)cc3Cl)C2C1` (configuration not stated), the concentration for a half-maximal effect (EC50) in assay [9] is 0.36 µM (active).
Consider `COc1ccc(C(CNC(=O)c2cccc(NS(=O)(=O)c3ccc(C)c(F)c3)c2)N2CCCC2)cc1` (configuration not stated), for which the IC50 in assay [10] is 15.3 µM (active); in assay [11], 11.7 µM (active); in assay [12], 15.8 µM (active); on Bcl-2-related protein A1 it was > 20 µM (inactive); in the assay “cells” it was 38 µM (active). The CC50 (usually the concentration giving 50% cytotoxicity) in assay [13] is > 40 µM (active).

(Values after ChEMBL document CHEMBL1201862, “PubChem BioAssay data set” (2004).)
